Drawing on PMC2902375 (Neuroreport, 2009), this text covers IC50 for one molecule.

Each structure is given as a SMILES string.

In this test the target is CACNA1H (Homo sapiens, UniProt O95180). As to the kind of experiment: whole-cell voltage clamp, HEK-293. Type of test: cell-based.

As a reminder, the IC50 is the concentration needed to halve the response being measured.

CACNA1H, sequence (O95180 whole entry): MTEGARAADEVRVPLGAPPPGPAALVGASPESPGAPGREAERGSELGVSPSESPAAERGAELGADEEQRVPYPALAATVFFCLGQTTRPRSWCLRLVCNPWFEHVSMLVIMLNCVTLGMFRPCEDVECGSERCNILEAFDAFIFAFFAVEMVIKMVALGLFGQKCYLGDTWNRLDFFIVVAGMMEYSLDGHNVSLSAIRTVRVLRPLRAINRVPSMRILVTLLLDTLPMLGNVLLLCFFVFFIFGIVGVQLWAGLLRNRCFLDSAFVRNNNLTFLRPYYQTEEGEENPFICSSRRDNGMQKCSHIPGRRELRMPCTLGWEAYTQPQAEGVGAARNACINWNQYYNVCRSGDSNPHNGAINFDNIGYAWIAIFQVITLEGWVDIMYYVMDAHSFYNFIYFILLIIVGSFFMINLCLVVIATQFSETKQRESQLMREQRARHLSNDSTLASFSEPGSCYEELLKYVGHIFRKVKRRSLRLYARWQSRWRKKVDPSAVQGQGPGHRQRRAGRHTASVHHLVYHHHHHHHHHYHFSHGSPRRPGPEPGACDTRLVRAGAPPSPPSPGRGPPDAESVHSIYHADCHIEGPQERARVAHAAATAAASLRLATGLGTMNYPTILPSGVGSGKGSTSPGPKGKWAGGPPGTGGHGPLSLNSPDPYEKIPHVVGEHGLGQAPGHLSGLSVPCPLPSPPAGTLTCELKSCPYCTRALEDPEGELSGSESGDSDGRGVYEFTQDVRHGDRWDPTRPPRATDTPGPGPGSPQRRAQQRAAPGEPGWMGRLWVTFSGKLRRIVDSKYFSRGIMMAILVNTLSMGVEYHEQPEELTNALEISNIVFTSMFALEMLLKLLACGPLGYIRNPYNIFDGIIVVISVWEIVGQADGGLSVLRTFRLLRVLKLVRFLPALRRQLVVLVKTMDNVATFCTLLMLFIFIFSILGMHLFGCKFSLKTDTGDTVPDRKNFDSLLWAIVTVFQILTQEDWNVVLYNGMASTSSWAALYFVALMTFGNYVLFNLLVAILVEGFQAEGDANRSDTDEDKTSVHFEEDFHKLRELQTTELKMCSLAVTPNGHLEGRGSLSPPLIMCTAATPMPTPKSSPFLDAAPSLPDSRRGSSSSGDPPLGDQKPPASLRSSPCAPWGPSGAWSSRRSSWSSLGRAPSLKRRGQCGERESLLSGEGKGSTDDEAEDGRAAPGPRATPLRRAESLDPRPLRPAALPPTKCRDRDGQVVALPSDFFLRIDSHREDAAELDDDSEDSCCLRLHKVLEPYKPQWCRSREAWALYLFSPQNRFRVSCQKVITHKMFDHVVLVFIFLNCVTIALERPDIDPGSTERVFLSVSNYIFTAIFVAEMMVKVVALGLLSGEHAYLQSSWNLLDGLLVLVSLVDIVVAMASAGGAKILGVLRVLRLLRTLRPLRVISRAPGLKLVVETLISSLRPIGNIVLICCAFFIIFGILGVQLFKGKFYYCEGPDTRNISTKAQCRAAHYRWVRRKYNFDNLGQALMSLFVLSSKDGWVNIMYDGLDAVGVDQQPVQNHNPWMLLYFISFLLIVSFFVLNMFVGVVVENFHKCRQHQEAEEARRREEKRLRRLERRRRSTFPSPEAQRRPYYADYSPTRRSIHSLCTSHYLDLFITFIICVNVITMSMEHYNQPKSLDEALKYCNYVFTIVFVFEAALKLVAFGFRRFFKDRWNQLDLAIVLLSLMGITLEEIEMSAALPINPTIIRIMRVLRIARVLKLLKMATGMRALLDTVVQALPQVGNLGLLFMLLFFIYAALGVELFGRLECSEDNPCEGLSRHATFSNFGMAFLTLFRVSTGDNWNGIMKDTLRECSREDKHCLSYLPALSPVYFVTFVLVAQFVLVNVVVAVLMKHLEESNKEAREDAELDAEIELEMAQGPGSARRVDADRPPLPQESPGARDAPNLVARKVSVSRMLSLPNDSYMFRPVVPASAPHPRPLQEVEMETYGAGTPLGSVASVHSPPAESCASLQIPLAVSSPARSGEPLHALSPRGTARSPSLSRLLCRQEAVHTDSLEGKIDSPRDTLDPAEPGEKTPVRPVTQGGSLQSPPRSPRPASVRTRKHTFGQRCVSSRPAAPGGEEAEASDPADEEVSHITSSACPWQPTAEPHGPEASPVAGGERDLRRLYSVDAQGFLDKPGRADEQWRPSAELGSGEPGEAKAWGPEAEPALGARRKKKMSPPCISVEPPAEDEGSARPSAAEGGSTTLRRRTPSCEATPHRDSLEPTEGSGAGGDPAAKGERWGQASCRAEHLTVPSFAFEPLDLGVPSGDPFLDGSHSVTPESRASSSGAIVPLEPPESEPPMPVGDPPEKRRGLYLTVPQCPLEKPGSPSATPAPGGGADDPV

As to `Fc1ccc(CN(CC(F)(F)F)C2CCN(CCCc3c[nH]c4ccc(Cn5cncn5)cc34)CC2)cc1` [TTA-I1, N-(4-fluorobenzyl)-1-{3-[5-(1H-1,2,4-triazol-1-ylmethyl)-1H-indol-3-yl]propyl}-N-(2,2,2-trifluoroethyl)piperidin-4-amine], the IC50 stood at 3 nM.
